# Experimental data published in patent publication US20260102377A1, “COMPOSITIONS AND METHODS FOR TREATING MYASTHENIA GRAVIS” (priority 2022, published 2026).
# “And” between values parts separate entries of the source, which are not always exact repeats. Equal entries are not always repeated. “Also recorded” adds a separate entry of the source. Where two headings read alike, the source gives them in different places.
# Legend:
# EAMG rats = assay: Grip strength test after single dose of Mestinon and CIC-1 inhibitor alone or in combination; assay type: in vivo, rat
# Experimental: To induce EAMG, 250 μL of emulsion of Complete Freund's Adjuvant, consisting of heat-inactivated Mycobacterium tuberculosis H37Ra in non-metabolizable oils, together with Phosphate-Buffered Saline (PBS) and 80 μg of the extracellular α-domain peptide fragment of the human nicotinic acetylcholine receptor (antigen) was injected subcutaneously in seven-week-old, anaesthetized Lewis rats. The disease-inducing antigen was supplied by the Hellenic Pasteur institute3. The emulsion was deposited at the tail base, left hindleg, and right foreleg. After injection, animals were allowed to recover and returned to their home cage maintained in ventilated racks under controlled temperature (20 to 22° C.) and humidity (˜55%) control, under a 12-h light/12-h dark cycle with food and water provided ad libitum. The animals had pathogen free status and the housing and changing system was designed to assure that the pathogen free status was preserved during the study. The EAMG rats were observed, weighed, and scored for MG symptoms weekly until symptoms of MG developed, whereafter animals were observed daily.
# In EAMG animals with severe MG symptoms the effects of CIC-1 inhibitor and Mestinon (pyridostigmine) alone or in combination was assessed. […] The study was blinded to both the experimenter and during subsequent analysis. Animals were subjected to grip strength test before compound administration, as described above and then dosed per oral with either 0.375 mg/kg pyridostigmine bromide (Mestinon) (CAS-no 101-26-8), 20 mg/kg NMD670 or a combination of both pyridostigmine and NMD670. Grip strength was tested 45 minutes post dosing. […] The change in grip strengths was calculated for individual animals relative to the results obtained prior to administration of test article and then averaged.
# Grip strength was measured on a BIOSEB BIO-GT3 Grip strength meter (force transducer, S/N 180271). […] Care was taken to ensure that the force recorded reflected the grip strength of the rat and not the force of the pulls conducted by the operator. […]
# [1] = Phase I clinical trial Part A: pharmacokinetics; assay type: in vivo; conditions: human; for half-life: read-out: T1/2 (mean ± SD, hr) (converted)
# Experimental: • Collect blood (3 mL recommended) onto wet ice (K2EDTA tubes) • Immediately cool blood on crushed wet ice for maximum of 30 minutes • Harvest plasma as quickly as possible using refrigerated centrifuge by centrifuging at 2000 g for 10 minutes at 4° C. • Keep plasma on wet ice and immediately stabilise with 1:1 (v/v) addition of Water: Orthophosphoric Acid (100:2 v/v) prepared using ≥85% orthophosphoric acid and deionised water (e.g. 750 μL plasma+750 μL stabiliser). • Mix sample thoroughly. • Keep the stabilised plasma on wet ice during subsequent steps. • Divide the stabilised plasma into 5×250 μL aliquots in plastic cryotubes. • Store aliquots at nominal −70° C./−80° C. promptly.
# • 1. Thaw frozen calibration standards, QC samples, blank matrix and study samples on wet ice. • 2. Vortex-mix all samples thoroughly. • 3. On wet ice aliquot 150 μL of calibration standards, QC samples, study samples, and blanks into a 2 mL 96-well plate. For the reagent blank add the same volume of Water. • 4. On wet ice add 25 μL of Methanol:Water (50:50) to wells containing blanks and the same volume of ISTD intermediate solution to all other wells. • 5. On wet ice add 125 μL of Water to each well. Cap plate and vortex-mix (˜5 minutes, 1000 rpm). • 6. Centrifuge plate (˜3000 g, 3 minutes, room temperature). • 7. Condition SPE plate (Waters Oasis HLB pElution) with 250 μL Methanol. • 8. Condition SPE plate with 250 μL of Water. • 9. Load 250 μL of the sample onto the SPE plate (aspirate from the rim of the cone to avoid any debris collected at the bottom of the well). Pass through using minimum pressure. • 10. Wash SPE plate with 250 μL of Water. • 11. Wash SPE plate with 250 μL of Methanol:Water (5:95). Briefly increase pressure for one minute to ensure sorbent is partially dried. • 12. Elute from SPE plate into a 1.2 mL 96-well plate using 30 μL of Methanol. Stand for one minute then pass through using absolute minimum pressure. • 13. Elute again with another 30 μL of Methanol, collecting into the same plate. Briefly increase pressure for one minute to complete the elution. • 14. Add 125 μL of Ammonium Formate 10 mM (aq):Formic Acid (100:0.3) to each well. Cap plate and vortex mix (˜1 minute, ≥1200 rpm). • 15. Store plate refrigerated prior to analysis.
# Subjects received 800 mg NMD670.
# healthy subjects = assay: Phase I clinical trial Part A: tolerability/safety of single doses
# Text: Part A1 tested single doses of NMD670 in a double-blind, randomised, placebo-controlled, partial crossover and dose-escalating design in healthy male subjects (see the WHO International Clinicals Trials Registry Platform study reference NL8692). A total of nine dose levels were investigated in three cohorts of subjects. Each cohort consisted of nine subjects, each subject had three study sessions. Each subject received escalating doses of NMD670 on two occasions and placebo on one occasion, the order will be randomized in a cross-over fashion. Each dose level was randomized in a 6:3 ratio (active vs. placebo).
# Therefore, for the remaining 2 doses, a full cross-over design investigating one previously tested dose level was used. […] To determine the effect of food on the exposure of single oral doses of NMD670, dose level 5 was administered in both the fasted and fed condition. Subjects who received dose level 5 returned for a fourth visit in which they received dose level 5 (or matching placebo) in the fed condition, in the same randomization as the chosen dose level in the fasted condition.
# Part A2 of the study investigated the safety, tolerability and pharmacokinetics of NMD670 in 8 healthy female subjects of non-childbearing potential, in a randomized, double-blind, placebo-controlled single dose administration of NMD670. Subjects received 800 mg NMD670. Subjects were randomized in a 6:2 ratio (active vs. placebo).
# The following endpoints were determined at time points indicated in the Schedule of Assessments. • Serious adverse events (SAEs) and adverse events (AEs) were collected throughout the study at every study visit. • Concomitant medication • Clinical laboratory tests • Haematology • Chemistry • Urinalysis • Coagulation • Vital signs • Pulse Rate (bpm) • Systolic blood pressure (mmHg) • Diastolic blood pressure (mmHg) • Respiratory rate • ECG • Heart Rate (HR) (bpm), PR, QRS, QT, QTcF • 24-hour Holter recording • Hand grip dynamometry • Grip release profile; time profile from 100% maximum voluntary contraction (MVC) to 5% of the 100% MVC
# [2] = of a total of 70 AEs, Part A healthy subjects
smiles,measurement,setting,value
"C[C@H](Oc1ccc(Br)cc1-c1ccon1)C(=O)O [NMD670, (2S)-2-[4-bromo-2-(1,2-oxazol-3-yl)phenoxy]propanoic acid]",Grip strength after administration (significance vs vehicle),"EAMG rats; 45 minutes after dosing, 20 mg/kg NMD670, or with 0.375 mg/kg Mestinon",significantly increased
same,Increase in Pulled Force (%),"EAMG rats; per oral, 45 minutes post dosing, 0.375 mg/kg Mestinon, 20 mg/kg NMD670 or both",15±5% and 14.5 ± 5.1%
same,AUC(0-inf),"[1]; female, plasma, po, 800 mg, 800 mg (female), single oral dose, read-out: AUC0-infinity (Mean ± SD, h · ng/mL)",256 ± 56.2 µg·h/mL
same,half-life,"[1]; female, plasma, po, 800 mg, 800 mg (female), single oral dose",5.55 ± 0.55 h
same,Linearity of PK parameters,[1]; phase 1 FIH study,approximately linear and predictable
same,half-life,"[1]; male, plasma, po, 800 mg, 800 mg fasted (male), single oral dose",5.39 ± 0.82 h
same,half-life,"[1]; male, plasma, po, 800 mg, 800 mg fed (male), single oral dose",5.02 ± 1.04 h
same,Healthy subjects with myotonic symptoms,"healthy subjects; 1200 mg QD, mild in intensity, resolved spontaneously within a few hours",2 healthy subjects
same,"AE with dose relationship, reported at the highest dose levels tested","healthy subjects; 1200 mg and 1600 mg single dose, healthy subjects",transient myotonia
same,Subject discontinuations,healthy subjects; Part A healthy subjects,no subject discontinuations
same,Total number of AEs reported,"healthy subjects; Part A, 35 healthy subjects, single-ascending dose study",70 AEs
same,Serum uric acid,"healthy subjects; Phase 1 clinical study, considered non-clinically significant",dose-dependent decrease in serum uric acid
same,Intensity of most AEs,healthy subjects; Phase 1 healthy subjects,mild and mild in intensity
same,Maximum tolerated dose,"healthy subjects; healthy subjects, based on myotonia",1200 mg QD
same,AEs at least possibly drug-related (number),healthy subjects; [2],47 AEs
same,AEs at least possibly drug-related (proportion),healthy subjects; [2],67%
same,Myotonia at 1600 mg (intensity),"healthy subjects; one healthy subject, single dose 1600 mg, spontaneously and fully resolved within hours, dose escalation stopped",myotonia of moderate intensity; also recorded: moderate in intensity; also recorded: Myotonia of moderate severity
same,Serious or severe adverse effects,"healthy subjects; single doses 50-1600 mg, healthy subjects",No serious or severe adverse effects; also recorded: No serious adverse reactions were reported
same,Relationship between increases in NMD670 dose and incidence of participants with AEs,"healthy subjects; single doses, healthy subjects",no meaningful relationships
